{"source": "patent US5102891A", "about": "“1-(substituted pyridinylamino)-1H-indol-5-yl substituted carbamates” (priority 1990, dated 1992)", "key": {"[1]": {"test_system": "Scopolamine Induced Memory Deficit", "assay_type": "in vivo, mice", "method": "In this assay mice are tested for their ability to remember an unpleasant stimulus for a period of 24 hours. A mouse is placed in a chamber that contains a dark compartment; a strong incandescent light drives it to the dark compartment, where an electric shock is administered through metal plates on the floor. The animal is removed from the testing apparatus and tested again, 24 hours later, for the ability to remember the electric shock.\nIf scopolamine, an anticholinergic that is known to cause memory impairment, is administered before an animal's initial exposure to the test chamber, the animal re-enters the dark compartment shortly after being placed in the test chamber 24 hours later. This effect of scopolamine is blocked by an active test compound, resulting in a greater interval before re-entry into the dark compartment.\nThe results for an active compound are expressed as the percent of a group of animals in which the effect of scopolamine is blocked, as manifested by an increased interval between being placed in the test chamber and re-entering the dark compartment."}, "[2]": {"target": "T1, Acetylcholinesterase (AChE) (Rattus norvegicus, UniProt P37136)", "T1 construct": "corpora striata dissected free, weighed and homogenized in 19 volumes; from tissue; host or cells: corpora striata of male Wistar rats, whole homogenate", "T1 sequence (P37136 32-614)": "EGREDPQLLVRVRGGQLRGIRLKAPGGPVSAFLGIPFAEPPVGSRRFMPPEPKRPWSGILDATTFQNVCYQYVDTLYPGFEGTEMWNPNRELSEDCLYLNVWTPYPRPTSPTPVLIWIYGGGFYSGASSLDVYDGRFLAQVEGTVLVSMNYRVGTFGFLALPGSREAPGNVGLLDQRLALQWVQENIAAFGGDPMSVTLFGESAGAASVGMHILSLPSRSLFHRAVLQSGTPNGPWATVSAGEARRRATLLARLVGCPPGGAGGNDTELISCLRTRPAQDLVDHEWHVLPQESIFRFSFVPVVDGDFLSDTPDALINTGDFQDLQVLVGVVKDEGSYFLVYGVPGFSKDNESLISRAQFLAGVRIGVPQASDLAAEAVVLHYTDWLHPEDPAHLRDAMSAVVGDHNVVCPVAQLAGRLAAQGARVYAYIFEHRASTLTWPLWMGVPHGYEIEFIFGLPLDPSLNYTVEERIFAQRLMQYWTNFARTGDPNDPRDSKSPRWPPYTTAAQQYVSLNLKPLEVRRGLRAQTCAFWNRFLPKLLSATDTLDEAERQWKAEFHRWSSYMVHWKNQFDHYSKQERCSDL", "test": "biochemical", "settings": "rat striatum homogenate, 10 min preincubation at 37° C., pH 7.2, acetylthiocholine 5 mM final; read-out: Inhibitory Concentration Brain AChE", "method": "Cholinesterases are found throughout the body, both in the brain and in serum. However, only brain acetylcholinesterase (AChE) distribution is correlated with central cholinergic innervation.\nThe method described below was used in this invention for assaying cholinesterase activity.\n1. 0.05M Phosphate buffer, pH 7.2\n(c) add (a) to (b) until pH reaches 7.2\n4. A 2 mM stock solution of the test drug is made up in a suitable solvent and q.s. to volume with 0.5 mM DTNB (reagent 3). Drugs are serially diluted (1:10) such that the final concentration (in cuvette) is 10^-4 M and screened for activity. If active, IC50 values are determined from the inhibitory activity of subsequent concentrations.\nMale Wistar rats are decapitated, brains rapidly removed, corpora striata dissected free, weighed and homogenized in 19 volumes (approximately 7 mg protein/ml) of 0.05M phosphate buffer, pH 7.2 using a Potter-Elvehjem homogenizer. […]\nEnzyme activity is measured with the Beckman DU-50 spectrophotometer. […]\nBlank values are determined for each run to control for non-enzymatic hydrolysis of substrate and these values are automatically subtracted by the kindata program available on kinetics soft-pac module. This program also calculates the rate of absorbance change for each cuvette. […]"}}, "note": "Where two headings read alike, the source gives them in different places."}
{"smiles": "CCCN(c1ccncc1)n1ccc2cc(OC(=O)NC)ccc21", "note": "[1-(Propyl-4-pyridinylamino)-1H-indol-5-yl methylcarbamate]", "values": [{"measurement": "% of Animals with Scopolamine Induced Memory Deficit Reversal", "setting": "[1]; mice, 0.35 mg/kg of body weight, s.c., retest 24 hours", "result": 21, "unit": "%"}, {"measurement": "IC50", "setting": "[2]", "result": 0.0023, "unit": "µM"}]}
{"smiles": "CCCN(c1ccncc1)n1ccc2cc(OC(=O)N[C@@H](C)c3ccccc3)ccc21", "note": "[(S)-(-)-1-(Propyl-4-pyridinylamino)-1H-indol-5-yl 1-phenylethylcarbamate]", "values": [{"measurement": "IC50", "setting": "[2]", "result": 30.2, "unit": "µM"}]}
{"smiles": "CC[C@@H]1C(=O)OC[C@@H]1Cc1cncn1C", "note": "[Pilocarpine]", "values": [{"measurement": "% of Animals with Scopolamine Induced Memory Deficit Reversal", "setting": "[1]; mice, 5.0 mg/kg of body weight, s.c., retest 24 hours", "result": 13, "unit": "%"}]}
{"smiles": "Nc1c2c(nc3ccccc13)CCCC2", "note": "[Tacrine]", "values": [{"measurement": "% of Animals with Scopolamine Induced Memory Deficit Reversal", "setting": "[1]; mouse, in vivo, sc, 0.63 mg/kg", "result": 13, "unit": "%"}]}
